Measurements published in ChEMBL document CHEMBL1154562, “Malevamides A-C, new depsipeptides from the marine cyanobacterium Symploca laete-viridis” (J Nat Prod, 2000).
The source made the active and inactive calls.

How the values were obtained:
Type in all cases: functional, cell-based
P388 = assay: Cytotoxicity against mouse P388 cells at 2 ug/mL
A549 = assay: Cytotoxicity against human A549 cells at 2 ug/mL
HT-29 = assay: Cytotoxicity against human HT29 cells at 2 ug/mL

Measured: Activity

C#CCCCC1NC(=O)[C@H]([C@@H](C)CC)N(C)C(=O)[C@@H]2CCCN2C(=O)[C@@H]2CCCN2C(=O)[C@H](CC(C)C)NC(=O)[C@H](C(C)C)N(C)C(=O)[C@H](C)NC(=O)[C@@H](C)N(C)C(=O)[C@H](Cc2ccccc2)N(C)C(=O)[C@H](COC)N(C)C(=O)[C@H](C(C)C)N(C)C(=O)[C@@H]2CCCN2C(=O)[C@H](C)NC(=O)[C@H](C(C)C)OC(=O)C1C (some centres undefined)
inactive: all assays above

CCCC1NC(=O)[C@H](Cc2ccccc2)N(C)C(=O)[C@@H]2CCCN2C(=O)C(C(C)C)N(C)C(=O)[C@@H]2CCCN2C(=O)[C@H]([C@@H](C)CC)NC(=O)C(C(C)C)N(C)C(=O)[C@@H]2CCCN2C(=O)C(C(C)C)N(C)C(=O)C(C(C)C)N(C)C(=O)[C@H](C(C)C)NC(=O)[C@H](C)N(C)C(=O)[C@@H](C(C)C)OC(=O)C1C (some centres undefined)
inactive: all assays above

CCCCC(C)C(=O)N1CCC[C@H]1C(=O)N(C)C(Cc1ccccc1)C(=O)NCC(=O)N(C)[C@@H](C(=O)N[C@H](C(=O)NCC(=O)N(C)C(Cc1ccccc1)C(=O)N1CCC[C@@H]1C(=O)OC)[C@@H](C)CC)C(C)C (some centres undefined)
inactive: all assays above
